“Also recorded” adds a separate entry of the source.
Assays:
[1] = system: pentagastrin-induced gastric acid secretion; details: rat, in vivo; cited from earlier work
[2] = system: aspirin- induced gastric lesions; details: rats; cited from earlier work
platelet aggregation = test: Inhibition of platelet aggregation (general statement); assay type: cell-based
[3] = system: rabbit platelet-rich plasma (PRP); test: Arachidonic acid-induced aggregation in rabbit platelet-rich plasma, Born-type aggregometer; assay type: cell-based
Procedure: (§1) Aggregation was induced in rabbit platelet-rich plasma (PRP) by addition of arachidonic acid, and monitored in a Born-type aggregometer. A dose of dipyridamole was selected which caused no inhibition of aggregation when added to the PRP 2 minutes prior to the addition of arachidonic acid. The active compound when added to the PRP 1 minute prior to the addition of arachidonic acid caused a dose-related inhibition of aggregation. The percentage inhibition caused by the active compound was compared in the presence and absence of the selected dose of dipyridamole.

human PRP [4] = test: Platelet aggregation in human PRP, potentiation by dipyridamole; assay type: cell-based; details: dipyridamole combined with 5-(6-carboxyhexyl)-1-(3-hydroxy-3-cyclohexylpropyl)hydantoin
human PRP [5] = test: ADP-induced aggregation of human PRP, potentiation by theophylline; assay type: cell-based
Procedure: [The source words this procedure for another species and says it was used here with some conditions changed.] as §1
The experiment of Example 12 was repeated using theophylline, another inhibitor of phosphodiesterase, in place of the dipyridamole. […]

[6] = system: histamine-induced broncho-constriction; details: cited from earlier work

CCCCCC(O)CCN1C(=O)NC(=O)C1CCCCCCC(=O)O (stereo not shown) [5-(6-carlJoxy-hexyl)-1-(3-hydroxyoctyl)-hydantoin]
inhibition of pentagastrin-induced gastric acid secretion [1]: inhibits pentagastrin-induced gastric acid secretion
formation of aspirin-induced gastric lesions [2]: reduces the formation of aspirin- induced gastric lesions in rats

O=C(O)CCCC=CCC1C(=O)NC(=O)N1CCC(O)C1CCCCC1 (stereo not shown) [5-(6-carboxyhex-2-enyl)-1-(3-hydroxy-3-cyclohexylpropyl)hydantoin]
inhibitors of platelet aggregation (activity in words) (platelet aggregation): especially active

OCCN(CCO)c1nc(N2CCCCC2)c2nc(N(CCO)CCO)nc(N3CCCCC3)c2n1 [Dipyridamole, 2,2', 2",2'"-(4,8-dipiperidinopy-rimido [5,4-d]pyrimidine-2,6-diyldinitrilo)tetraethanol, reference compound]
inhibition at 50 µg/mL ([3]; Oryctolagus cuniculus, Dipyridamole 50 µg/ml alone, added 2 minutes before arachidonic acid, read-out: Percentage Inhibition): 0%
potentiation of the inhibitory activity of the active compound on platelet aggregation ([3]; dipyridamole combined with 5-(6-carboxyhexyl)-1-(3-hydroxy-3-cyclohexylpropyl)hydantoin, rabbit PRP): inhibitory effect of a dose of the active compound in the presence of dipyridamole is approximately equivalent to that caused by twice that dose of the active compound alone; also recorded: produced a potentiation of the anti-aggrcgatory effect of the active compound
potentiation of the anti-aggregatory effect of the active compound (human PRP [4]): a similar potentiation was observed; also recorded: produced a potentiation of the anti-aggrcgatory effect of the active compound

O=C(O)CCCCCCC1C(=O)NC(=O)N1CCCCOc1ccccc1 (stereo not shown) [5-(6-carboxyhexyl)-1-(4-phenoxybutyl) hydantoin]
inhibition of pentagastrin-induced gastric acid secretion [1]: inhibits pentagastrin-induced gastric acid secretion
formation of aspirin-induced gastric lesions [2]: reduces the formation of aspirin- induced gastric lesions in rats

O=C(O)CCCCCCC1C(=O)NC(=O)N1CCC(O)C1CCCCC1 (stereo not shown) [5-(6-carboxyhexyl)-1-(3-hydroxy-3-cyclohexylpropyl)hydantoin]
inhibitors of platelet aggregation (activity in words) (platelet aggregation): especially active
inhibition at 0.05 µg/mL ([3]; Oryctolagus cuniculus, active compound 50 ng/ml alone, added 1 minute before arachidonic acid, read-out: Percentage Inhibition): 37%
inhibition at 0.075 µg/mL ([3]; Oryctolagus cuniculus, active compound 75 ng/ml alone, read-out: Percentage Inhibition): 66%
inhibition at 0.1 µg/mL ([3]; Oryctolagus cuniculus, active compound 100 ng/ml alone, read-out: Percentage Inhibition): 100%
Percentage Inhibition ([3]; active compound 50 ng/ml with Dipyridamole 50 µg/ml): 77
inhibition of rabbit platelet aggregation (potency in words) ([3]; rabbit platelets, active compound alone): not a particularly potent inhibiton of rabbit platelet aggregation
inhibition at 0.0005 µg/mL (human PRP [5]; Homo sapiens, active compound 0.5 ng/ml alone, read-out: Percentage Inhibition): 19%
inhibition at 0.001 µg/mL (human PRP [5]; Homo sapiens, active compound 1 ng/ml alone, read-out: Percentage Inhibition): 55%
Percentage Inhibition (human PRP [5]; active compound 0.5 ng/ml with Theophylline 20 µg/ml): 51
Percentage Inhibition (human PRP [5]; active compound 1 ng/ml with Theophylline 20 µg/ml): 70

CCCCC(C)(C)C(O)CCN1C(=O)NC(=O)C1CCCCCCC(=O)O (stereo not shown) [5-(6-carboxyhexyl)-1-(3-hydroxy-4,4-dimethyloctyl) hydantoin]
antagonism of histamine-induced broncho-constriction [6]: antagonises histamine-induced broncho-constriction

Cn1c(=O)c2[nH]cnc2n(C)c1=O [Theophylline, 3,7-dihydro-1,3-dimethyl-1H-purine-2,6-dione, reference compound]
inhibition at 20 µg/mL (human PRP [5]; Homo sapiens, Theophylline 20 µg/ml alone, read-out: Percentage Inhibition): 7%
potentiation of the inhibitory effect of the active compound on ADP - induced aggregation (human PRP [5]; theophylline combined with 5-(6-carboxyhexyl)-1-(3-hydroxy-3-cyclohexylpropyl)hydantoin, human PRP): found to potentiate the inhibitory effect

CCCCCC(=O)CCN1C(=O)N(C)C(=O)C1CCCCCCC(=O)O (stereo not shown) [5-(6-carboxyhexyl)-3-methyl-1-(3-oxo-octyl)hydantoin]
inhibition of pentagastrin-induced gastric acid secretion [1]: inhibits pentagastrin-induced gastric acid secretion
formation of aspirin-induced gastric lesions [2]: reduces the formation of aspirin- induced gastric lesions in rats

CCCCCC(=O)CCN1C(=O)NC(=O)C1CCCCCCC(=O)O (stereo not shown) [5-(6-carboxyhexyl)-1-(3-oxo-octyl)hydantoin]
inhibition of pentagastrin-induced gastric acid secretion [1]: inhibits pentagastrin-induced gastric acid secretion
formation of aspirin-induced gastric lesions [2]: reduces the formation of aspirin- induced gastric lesions in rats

From patent EP0011828A1, “Pharmaceutical combinations including hydantoin derivatives, pharmaceutical formulations containing the combinations and methods of making the formulations” (THE WELLCOME FOUNDATION LIMITED, priority 1978, dated 1980)
